Measurements taken from BindingDB's records for doi:10.1021/jm00170a007 (Pfizer, 1990).
pIC50: −log10 of the molar value.

Legend:
[1] = inhibitory activity against 5-hydroxytryptamine 1C receptor of pig choroid plexus using [3H]mesulergine as the radioligand
[2] = Compound was evaluated for its inhibitory activity against 5-hydroxytryptamine 1D receptor of bovine caudate using [3H]5-HT as the radioligand

SMILES: FC(F)(F)c1ccc2c(c1)nc(N1CCNCC1)c1cccn12 [4-Piperazin-1-yl-7-trifluoromethyl-pyrrolo[1,2-a]quinoxaline(desmethyl-CGS-12066B)]
- pIC50 [1]: 5.00
- pIC50 [2]: 6.72
